Laboratory results reported in patent publication US20260216238A1, “TETRATHIOMOLYBDIC ACID FOR USE IN TREATING COPPER METABOLISM-ASSOCIATED DISEASES OR DISORDERS (WILSON DISEASE)” (Alexion Pharmaceuticals, Inc., priority 2023, published 2026).

Tested on: patients with Wilson disease (WD)
Assay: Unified Wilson Disease Rating Scale (UWDRS) Part II total score (disability)
Type: in vivo, human
Settings: for UWDRS Part II (0-40) change from baseline, Mean (SD): pooled Studies 301 and 201; for UWDRS Part II (0-40) change from baseline, LSM / UWDRS Part II (0-40) change from baseline, Mean: Study 301 TTM long term set
Source text: Unified Wilson Disease Rating Scale (Parts I, II, and III): The UWDRS is a clinical rating scale designed to evaluate the neurological manifestations of WD that generally can be divided into 3 movement disorder syndromes: dystonic, ataxic, and Parkinsonian syndrome. The UWDRS comprises 3 parts: UWDRS Part I (level of consciousness, item 1), UWDRS Part II (a patient-reported review of daily activity items [disability], items 2 to 11), and UWDRS Part III (a detailed neurological examination, items 12 to 34).
The UWDRS Part I and Part III were assessed by a neurologist who is blinded to the treatment randomization, while UWDRS Part II may be reported to a non-blinded member of the study team by the patient, family member, or caregiver. The UWDRS has not been formally evaluated in adolescents. However, the components of Part I (level of consciousness), Part II (patient or caregiver-reported disability) and Part III (neurologic examination findings) were not fundamentally different between adults and adolescents. Patients aged 12 years and older were expected to be able to comply with UWDRS assessments.
Pooled results from all such participants will be integrated together into one timeline to allow analyses of changes in UWDRS, long-term copper control, and long-term safety laboratory data.

bis-choline tetrathiomolybdate [TTM]
UWDRS Part II score change (mean) (0-48W, symptomatic patients): −1.7
UWDRS Part II (0-40), Change from Baseline at 48 weeks, LSM (Study 301 Full Analysis Set): −0.1
UWDRS Part II (0-40), Change from Baseline at 48 weeks, Mean (Study 301 Full Analysis Set): −0.6
UWDRS Part II (0-40) change from baseline, Mean (SD) (TTM exposure 4 weeks): −0.3 (2.28)
UWDRS Part II (0-40) change from baseline, Mean (SD) (TTM exposure 12 weeks): −0.4 (2.76)
UWDRS Part II (0-40) change from baseline, Mean (SD) (TTM exposure 24 weeks): −0.4 (3.42)
UWDRS Part II (0-40) change from baseline, Mean (SD) (TTM exposure 36 weeks): −0.9 (4.11)
UWDRS Part II (0-40) change from baseline, Mean (SD) (TTM exposure 48 weeks): −1.2 (4.24)
UWDRS Part II (0-40) change from baseline, Mean (SD) (TTM exposure 60 weeks): −1.4 (4.35)
UWDRS Part II (0-40) change from baseline, Mean (SD) (TTM exposure 72 weeks): −1.9 (4.74)
UWDRS Part II (0-40) change from baseline, Mean (SD) (TTM exposure 96 weeks): −2.5 (6.11)
UWDRS Part II (0-40) change from baseline, Mean (SD) (TTM exposure 120 weeks): −3.1 (6.82)
UWDRS Part II (0-40) change from baseline, Mean (SD) (TTM exposure 144 weeks): −3.3 (6.61)
UWDRS Part II (0-40) change from baseline, Mean (SD) (TTM exposure 168 weeks): −6.2 (10.17)
UWDRS Part II (0-40) change from baseline, Mean (SD) (TTM exposure 192 weeks): −5.9 (9.88)
UWDRS Part II (0-40) change from baseline, Mean (SD) (TTM exposure 216 weeks): −7.1 (10.90)
UWDRS Part II (0-40) change from baseline, Mean (SD) (TTM exposure 240 weeks): −6.6 (10.09)
UWDRS Part II (0-40) change from baseline, Mean (SD) (TTM exposure 264 weeks): −6.2 (9.02)
UWDRS Part II (0-40), Difference at 48 weeks, LSM (TTM vs SoC, P 0.4430): 0.4
UWDRS Part II (0-40) change from baseline, LSM (Week 24): −0.4
UWDRS Part II (0-40) change from baseline, Mean (Week 24): −0.3
UWDRS Part II (0-40) change from baseline, LSM (Week 48): −0.7
UWDRS Part II (0-40) change from baseline, Mean (Week 48): −0.7
UWDRS Part II (0-40) change from baseline, LSM (Week 72): −1.0
UWDRS Part II (0-40) change from baseline, Mean (Week 72): −1.2
UWDRS Part II (0-40) change from baseline, LSM (Week 96): −1.1
UWDRS Part II (0-40) change from baseline, Mean (Week 96): −1.1
UWDRS Part II (0-40) change from baseline, LSM (Week 120): −1.7
UWDRS Part II (0-40) change from baseline, Mean (Week 120): −1.4
UWDRS Part II (0-40) change from baseline, LSM (Week 144): −2.0
UWDRS Part II (0-40) change from baseline, Mean (Week 144): −2.0
